# Measurements taken from US12065434B2, “Metabolites of GLP1R agonists” (Pfizer Inc., priority 2020, dated 2024).
# What was measured:
# mouse hepatocytes = experiment: In vitro metabolism of Compound 2 in mouse cryopreserved hepatocytes; format: in vitro ADME; parameters: key to Relative abundance of metabolite of Compound 2, Mouse: ND Not detected.; trace: Trace: observed by HPLC/MS measurements only.; + Minor as assessed by HPLC/UV measurements; ++ moderate as assessed by HPLC/UV measurements; +++ major as assessed by HPLC/UV measurements.; * m/z 593 and m/z 505 co-eluted in rabbit hepatocytes.; ** m/z 591 c and m/z 593 were merged in human hepatocytes and Hepatopack.; *** m/z 607 and m/z 751 b were merged in rabbit hepatocytes; details: for metabolite of Compound 2 observed in mouse hepatocyte incubations: 10 μM Compound 2, 7.5×10^5 cells/mL, 1 and 4 hrs composite
# Description: (§1) Male CD-1 mouse hepatocytes (lot YHL), male Wistar-Han rat hepatocytes (Celsius; product number: M000065; lot: SLA), female New Zealand rabbit hepatocytes (lot 1510147), male cryopreserved cynomolgus monkey hepatocytes (Celsius; product number: M00305; lot: DNB) and mixed-gender cryopreserved human hepatocytes (Bioreclamation; product number: S01988; lot: DCM) were obtained for the hepatocyte in-vitro assessments.
# (§2) At time 0 hrs 550 μL aliquots were removed from incubations and quenched with 5 volumes of ACN containing 0.1% formic acid. At 1 and 4 hrs, 275 μL aliquots were removed and quenched as above; these were combined in the same tube to prepare a composite sample. For all hepatocyte experiments, samples were processed by centrifugation at 1900×g for 5 minutes, and then the supernatant was transferred to clean glass tubes and evaporated to dryness under a stream of N2 using a Turbovap at 37° C. Sample residues were reconstituted in mobile phase prior to analysis by HPLC/UV/MS^n.
# (§3) Samples were analyzed by HPLC/UV/MS^n using a Thermo Orbitrap Elite mass spectrometer in conjunction with a Thermo Open Accela UHPLC system. A 3.0×150 mm, 2.5 μm Acquity CSH C18 HPLC column (Waters) was heated to 45° C. for separation of analytes. The mobile phase was a gradient of A): water containing 0.1% formic acid, and B): acetonitrile. The flow rate was 450 μL/min, and the following gradient program was utilized: […]
# (§4) UV absorbance was monitored with a photo-diode array detector from 220-450 nm. The mass spectrometer was operated in positive-ion mode with a HESI ion source at a potential of 3.0 kV, and capillary and source heater temperatures of 380 and 300° C., respectively. Sheath, auxiliary, and sweep gas flows were set to 45, 10, and 2 units, respectively. Full scan mass spectra were acquired over the range 120-1200 m/z at a resolving power of 30,000 (specified at m/z 400). Data-dependent MS^n spectra were acquired in an automated fashion at 15,000 resolving power using CID and HCD fragmentation with normalized collision energy settings of 28 and 65 V, respectively.
# (§5) Metabolites were characterized by comparisons of mass spectral fragmentation patterns with that of a Compound 2 standard. All HPLC/UV/MS^n data were processed using Xcalibur v. 2.2, and integrated UV peak areas were subjected to weighted UV binning procedures utilizing an Excel template.
# monkey hepatocytes = experiment: In vitro metabolism of Compound 2 in monkey cryopreserved hepatocytes; format: in vitro ADME, cynomolgus monkey; parameters: key to Relative abundance of metabolite of Compound 2, Monkey: ND Not detected.; trace: Trace: observed by HPLC/MS measurements only.; + Minor as assessed by HPLC/UV measurements; ++ moderate as assessed by HPLC/UV measurements; +++ major as assessed by HPLC/UV measurements.; * m/z 593 and m/z 505 co-eluted in rabbit hepatocytes.; ** m/z 591 c and m/z 593 were merged in human hepatocytes and Hepatopack.; *** m/z 607 and m/z 751 b were merged in rabbit hepatocytes; details: for metabolite of Compound 2 observed in monkey hepatocyte incubations: 10 μM Compound 2, 7.5×10^5 cells/mL, 1 and 4 hrs composite
# Description: as §1, §2, §3, §4, §5
# [1] = test system: human co-cultured hepatocytes (Hepatopack); experiment: In vitro metabolism of Compound 2 in human micropatterned co-cultured hepatocytes (Hepatopack); format: in vitro ADME; parameters: key to Relative abundance of metabolite of Compound 2, Hepatopack: ND Not detected.; trace: Trace: observed by HPLC/MS measurements only.; + Minor as assessed by HPLC/UV measurements; ++ moderate as assessed by HPLC/UV measurements; +++ major as assessed by HPLC/UV measurements.; * m/z 593 and m/z 505 co-eluted in rabbit hepatocytes.; ** m/z 591 c and m/z 593 were merged in human hepatocytes and Hepatopack.; *** m/z 607 and m/z 751 b were merged in rabbit hepatocytes
# From the text: Micro-patterned co-cultured (MPCC) hepatocyte 24-well plates containing human donors (16 wells each) were provided by Ascendance Biotechnology (formerly Hepregen Corp. (Medford, MA). [see Wang W W W, Khetani S R, Krzyzewski S, et al. Assessment of a Micropatterned Hepatocyte Coculture System to Generate Major Human Excretory and Circulating Drug Metabolites. Drug Metab Dispos 2010; 38(10):1900-5.] The MPCCs were created at Ascendance Biotechnology and maintained in serum containing medium for 5-6 days to allow for stabilization of the co-cultures prior to shipment. A mixed-gender cryopreserved pool of 10 human donors (X008001-P; lot YFA) was used to seed the plates and was purchased from BioreclamationIVT (Westbury, NY). MPCC hepatocytes are plated with fibroblasts in a 1:3 ratio with ˜25,000 hepatocytes/well in a 24-well plate. 24-Well MPCC plates were shipped to Pfizer, fresh medium (400 μL/well) was applied and cultures were kept at 37° C. with […] and 95% relative humidity for two days. Micropatterned co-cultures containing pooled hepatocytes were allowed 7 days to fully stabilize with respect to liver-specific functions. […] At respective time points (0, 2, and 7 days), the culture medium was removed and mixed with 4 volumes of ACN, then stored frozen at −40° C. until samples could be analyzed. Samples were subsequently processed by the addition of 2.5 mL of 1:1 ACN:MeOH containing 0.1% formic acid. After vortexing, the samples were centrifuged at 1900×g for 5 min, then the supernatant was transferred to 15 mL conical tubes and evaporated under N2 using a Turbovap set at 37° C. The residues were reconstituted in mobile phase (5:95 v:v ACN:0.1% aqueous formic acid) prior to analysis by HPLC/UV/MS^n.
# as §3
# as §4, with “Data-dependent MS^n spectra were acquired in an automated fashion at 15,000 resolving power using CID and HCD fragmentation with normalized collision energy settings of 28 and 65 V, respectively.” left out
# [2] = Circulating metabolites of Compound 2 in rat plasma following a 1.0 mg/kg IV bolus dose; format: in vivo; details: 1.0 mg/kg IV bolus dose of Compound 2, pooled 0.033-24 hrs
# Description: Plasma and bile samples were obtained from a bile duct cannulated rat experiment (Study PK-0111) in which a 1.0 mg/kg IV bolus dose was administered to fed male rats (N=3). No control plasma was available from this experiment.
# Clin Pharmacol Ther 1981; 29(3):408-13]. The entire volume of each replicate Hamilton pool was combined to create a single pooled sample (576 μL) for analysis.
# Pooled plasma and bile samples were extracted with ACN containing 0.1% formic acid, and after centrifugation at 1900×g, the supernatant was transferred to clean tubes and evaporated under N2 in a Turbovap set at 37° C. Residues were reconstituted in mobile phase (5:95 v:v ACN:0.1% aqueous formic acid) prior to analysis by HPLC/UV/MS^n.
# as §3, §4, §5
metabolite of Compound 2 observed in mouse hepatocyte incubations (mouse hepatocytes),"Relative abundance of metabolite of Compound 2, Mouse (mouse hepatocytes; mouse cryopreserved hepatocytes, HPLC/UV/MS)",metabolite of Compound 2 observed in monkey hepatocyte incubations (monkey hepatocytes),"Relative abundance of metabolite of Compound 2, Monkey (monkey hepatocytes; monkey cryopreserved hepatocytes, HPLC/UV/MS)","Relative abundance of metabolite of Compound 2, Hepatopack ([1]; human co-cultured hepatocytes (Hepatopack), HPLC/UV/MS)",detected in rat plasma [2],detected in rat plasma ([2]; listed as m/z 331),"abundance of metabolite of Compound 2 in human Hepatopack system ([1]; Compound 2 tris salt 20 μM, up to 7 days)",detected in rat plasma ([2]; listed as m/z 751b),Structure (SMILES)
observed in all hepatocyte incubations,+,observed in all hepatocyte incubations,+,trace,observed,detected,,,C[C@]1(c2ccc(Cl)cn2)Oc2cccc(C3CCNCC3)c2O1 [Metabolite 331]
observed in all hepatocyte incubations,,observed in all hepatocyte incubations,,,observed,,most abundant metabolites,detected,C[C@]1(c2ccc(Cl)cn2)Oc2cccc(C3CCN(Cc4nc5ccc(C(=O)O[C@@H]6O[C@H](C(=O)O)[C@@H](O)[C@H](O)[C@H]6O)cc5n4C[C@@H]4CCO4)CC3)c2O1 [Metabolite 751b]
